{"source": "patent US20110230481A2", "about": "“DERIVATIVES OF TETRABROMOBENZIMIDAZOLE, A PROCESS FOR THE PREPARATION THEREOF, A PHARMACEUTICAL COMPOSITION COMPRISING THE SAME, A METHOD OF USING THE SAME, A METHOD FOR MODULATING OR REGULATING SERINE/THREONINE KINASES, AND SERINE/THREONINE KINASES MODULATING AGENT” (SELVITA S.A., priority 2009, published 2011)", "assay_in_all_cases": "KINOMEscan Max", "assay_type_in_all_cases": "binding", "key": {"MEK6": {"target": "MEK6 (Homo sapiens, UniProt P52564)", "outline": "(§1)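 Steps: mix DNA-tagged kinase, immobilized active-site ligand and compound; let compound compete with ligand for the kinase; quantify the kinase retained by qPCR on its DNA tag.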"}, "HIPK1": {"target": "T1, HIPK1 (Homo sapiens, UniProt Q86Z02)", "T1 construct": "DNA tag (qPCR read-out); purchased Ambit Kinomescan", "outline": "as §1"}, "MEK3": {"target": "MEK3 (Homo sapiens, UniProt P46734)", "sequence (P46734 whole entry)": "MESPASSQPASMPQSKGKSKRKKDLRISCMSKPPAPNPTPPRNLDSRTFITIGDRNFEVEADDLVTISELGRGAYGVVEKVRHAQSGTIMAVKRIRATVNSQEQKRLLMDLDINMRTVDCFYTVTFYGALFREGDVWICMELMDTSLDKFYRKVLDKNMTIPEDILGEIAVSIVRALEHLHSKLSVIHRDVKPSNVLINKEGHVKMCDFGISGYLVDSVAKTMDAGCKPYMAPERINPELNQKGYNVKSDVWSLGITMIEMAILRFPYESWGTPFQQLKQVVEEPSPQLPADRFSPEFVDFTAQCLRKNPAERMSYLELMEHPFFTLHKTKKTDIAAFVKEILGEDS", "outline": "as §1"}, "ERN1": {"target": "T2, ERN1 (Homo sapiens, UniProt O75460)", "T2 construct": "DNA tag (qPCR read-out)", "outline": "as §1"}, "TBK1": {"target": "TBK1 (Homo sapiens, UniProt Q9UHD2)", "outline": "as §1"}, "AXL": {"target": "T3, AXL (Homo sapiens, UniProt P30530)", "T3 construct": "DNA tag (qPCR read-out)", "T3 sequence (P30530 26-894)": "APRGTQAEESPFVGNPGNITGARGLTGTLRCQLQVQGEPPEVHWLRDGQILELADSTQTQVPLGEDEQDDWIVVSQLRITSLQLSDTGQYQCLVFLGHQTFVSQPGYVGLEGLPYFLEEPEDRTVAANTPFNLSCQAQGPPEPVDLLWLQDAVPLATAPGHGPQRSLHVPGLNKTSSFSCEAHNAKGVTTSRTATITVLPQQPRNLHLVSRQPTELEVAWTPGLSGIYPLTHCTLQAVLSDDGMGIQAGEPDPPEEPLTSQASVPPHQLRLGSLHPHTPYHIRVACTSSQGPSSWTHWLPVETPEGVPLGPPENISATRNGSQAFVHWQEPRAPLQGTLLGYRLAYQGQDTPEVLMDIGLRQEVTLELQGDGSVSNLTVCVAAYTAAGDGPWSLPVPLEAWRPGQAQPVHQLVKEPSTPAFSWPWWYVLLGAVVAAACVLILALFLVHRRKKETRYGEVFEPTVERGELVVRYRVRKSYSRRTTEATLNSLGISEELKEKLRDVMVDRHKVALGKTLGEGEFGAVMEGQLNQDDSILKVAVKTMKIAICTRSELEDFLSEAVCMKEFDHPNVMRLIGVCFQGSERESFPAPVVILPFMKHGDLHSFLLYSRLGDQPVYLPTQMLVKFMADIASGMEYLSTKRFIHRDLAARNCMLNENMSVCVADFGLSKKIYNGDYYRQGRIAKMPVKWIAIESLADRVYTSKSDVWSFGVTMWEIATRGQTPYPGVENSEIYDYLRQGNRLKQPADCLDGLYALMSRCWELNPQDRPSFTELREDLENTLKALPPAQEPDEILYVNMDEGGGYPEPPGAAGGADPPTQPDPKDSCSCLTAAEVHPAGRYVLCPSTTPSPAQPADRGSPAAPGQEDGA", "outline": "as §1"}, "EPHB1": {"target": "T4, EPHB1 (Homo sapiens, UniProt P54762)", "T4 construct": "purchased Ambit (KINOMEscan Max panel service)", "T4 sequence (P54762 18-984)": "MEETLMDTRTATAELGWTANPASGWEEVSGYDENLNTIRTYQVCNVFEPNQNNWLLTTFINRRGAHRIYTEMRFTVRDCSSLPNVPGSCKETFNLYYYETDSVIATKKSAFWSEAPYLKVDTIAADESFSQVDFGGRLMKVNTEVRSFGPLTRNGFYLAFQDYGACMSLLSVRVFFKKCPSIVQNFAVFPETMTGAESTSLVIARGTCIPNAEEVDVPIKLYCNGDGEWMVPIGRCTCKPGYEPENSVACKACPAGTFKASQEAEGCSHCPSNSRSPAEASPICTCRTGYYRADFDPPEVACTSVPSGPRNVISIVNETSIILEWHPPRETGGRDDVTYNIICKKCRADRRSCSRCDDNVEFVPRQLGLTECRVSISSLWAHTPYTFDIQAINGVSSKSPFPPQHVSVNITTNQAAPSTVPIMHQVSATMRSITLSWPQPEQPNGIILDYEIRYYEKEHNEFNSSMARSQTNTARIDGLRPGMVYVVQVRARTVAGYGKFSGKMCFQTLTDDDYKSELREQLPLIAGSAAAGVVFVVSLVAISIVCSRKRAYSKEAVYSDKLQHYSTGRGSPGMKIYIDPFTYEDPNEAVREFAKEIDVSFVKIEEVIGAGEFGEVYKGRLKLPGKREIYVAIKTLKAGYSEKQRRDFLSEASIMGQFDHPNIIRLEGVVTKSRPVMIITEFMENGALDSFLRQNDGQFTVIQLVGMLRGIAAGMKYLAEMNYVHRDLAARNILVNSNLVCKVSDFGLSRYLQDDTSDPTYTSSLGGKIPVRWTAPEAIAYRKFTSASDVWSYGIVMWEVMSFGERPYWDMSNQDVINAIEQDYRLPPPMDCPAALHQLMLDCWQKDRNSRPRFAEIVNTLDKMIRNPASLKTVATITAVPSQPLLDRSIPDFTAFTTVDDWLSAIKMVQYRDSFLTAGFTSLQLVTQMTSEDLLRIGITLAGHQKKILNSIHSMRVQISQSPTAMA", "outline": "as §1"}, "CAMK2D": {"target": "T5, CAMK2D (Homo sapiens, UniProt Q13557)", "T5 construct": "DNA tag (qPCR label); purchased Ambit Kinomescan (contract screening)", "outline": "as §1"}, "NEK5": {"target": "NEK5 (Homo sapiens, UniProt Q6P3R8)", "outline": "as §1"}, "CAMK2G": {"target": "T6, CAMK2G (Homo sapiens, UniProt Q13555)", "T6 construct": "DNA tag (qPCR label); purchased Ambit Kinomescan (contract screening)", "outline": "as §1"}, "[1]": {"target": "ABL1(H396P)nonphosphorylated (Homo sapiens, UniProt P00519, H396P)", "outline": "as §1"}, "TAK1": {"target": "T7, TAK1 (Homo sapiens, UniProt O43318)", "T7 construct": "purchased Ambit (KINOMEscan Max service)", "outline": "as §1"}, "BRAF(V600E)": {"target": "BRAF(V600E) (Homo sapiens, UniProt P15056, V600E)", "outline": "as §1"}, "EGFR(L858R.T790M)": {"target": "T8, EGFR(L858R.T790M) (Homo sapiens, UniProt P00533, L858R/T790M)", "T8 construct": "purchased Ambit (KINOMEscan Max panel service)", "conditions": "1 μM", "outline": "as §1"}, "DCAMKL2": {"target": "T9, DCAMKL2 (Homo sapiens, UniProt Q8N568)", "T9 construct": "purchased Ambit (KINOMEscan Max panel service)", "outline": "as §1"}, "MYLK": {"target": "T10, MYLK (Homo sapiens, UniProt Q15746)", "T10 construct": "purchased Ambit (KINOMEscan Max service)", "outline": "as §1"}, "ASK2": {"target": "T11, ASK2 (Homo sapiens, UniProt O95382)", "T11 construct": "DNA tag (qPCR read-out)", "outline": "as §1"}, "TGFBR2": {"target": "T12, TGFBR2 (Homo sapiens, UniProt P37173)", "T12 construct": "purchased Ambit Kinomescan (contract screening service)", "outline": "as §1"}, "YANK1": {"target": "T13, YANK1 (Homo sapiens, UniProt Q8WU08)", "T13 construct": "purchased Ambit Kinomescan (contract screening service)", "outline": "as §1"}, "FLT3(R834Q)": {"target": "T14, FLT3(R834Q) (Homo sapiens, UniProt P36888, R834Q)", "T14 construct": "purchased Ambit Kinomescan (contract panel, KINOMEscan Max)", "outline": "as §1"}, "MEK4": {"target": "T15, MEK4 (Homo sapiens, UniProt P45985)", "T15 construct": "purchased Ambit (KINOMEscan Max service)", "outline": "as §1"}, "[2]": {"target": "T16, RSK3(Kin.Dom.2-C-terminal) (Homo sapiens, UniProt Q15349)", "T16 construct": "RSK3(Kin.Dom.2-C-terminal); purchased Ambit Kinomescan (contract screening)", "T16 sequence (Q15349 415-672 limits assumed)": "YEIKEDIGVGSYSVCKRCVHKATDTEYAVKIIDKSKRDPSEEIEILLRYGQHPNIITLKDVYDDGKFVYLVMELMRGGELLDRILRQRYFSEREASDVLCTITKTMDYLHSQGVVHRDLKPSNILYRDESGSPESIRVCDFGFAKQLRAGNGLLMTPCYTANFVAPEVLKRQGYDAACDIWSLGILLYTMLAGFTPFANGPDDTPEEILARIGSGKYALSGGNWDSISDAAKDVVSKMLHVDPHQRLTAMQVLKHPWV", "outline": "as §1"}, "PYK2": {"target": "T17, PYK2 (Homo sapiens, UniProt Q14289)", "T17 construct": "DNA tag (qPCR read-out)", "outline": "as §1"}, "CSF1R": {"target": "T18, CSF1R (Homo sapiens, UniProt P07333)", "T18 construct": "purchased Ambit (KINOMEscan Max panel service)", "outline": "as §1"}, "CDKL1": {"target": "T19, CDKL1 (Homo sapiens, UniProt Q00532)", "T19 construct": "DNA tag (qPCR label); purchased Ambit Kinomescan (contract screening)", "outline": "as §1"}, "IRAK4": {"target": "T20, IRAK4 (Homo sapiens, UniProt Q9NWZ3)", "T20 construct": "purchased Ambit Kinomescan (contract panel)", "conditions": "1 μM", "outline": "as §1"}, "TXK": {"target": "TXK (Homo sapiens, UniProt P42681)", "sequence (P42681 whole entry)": "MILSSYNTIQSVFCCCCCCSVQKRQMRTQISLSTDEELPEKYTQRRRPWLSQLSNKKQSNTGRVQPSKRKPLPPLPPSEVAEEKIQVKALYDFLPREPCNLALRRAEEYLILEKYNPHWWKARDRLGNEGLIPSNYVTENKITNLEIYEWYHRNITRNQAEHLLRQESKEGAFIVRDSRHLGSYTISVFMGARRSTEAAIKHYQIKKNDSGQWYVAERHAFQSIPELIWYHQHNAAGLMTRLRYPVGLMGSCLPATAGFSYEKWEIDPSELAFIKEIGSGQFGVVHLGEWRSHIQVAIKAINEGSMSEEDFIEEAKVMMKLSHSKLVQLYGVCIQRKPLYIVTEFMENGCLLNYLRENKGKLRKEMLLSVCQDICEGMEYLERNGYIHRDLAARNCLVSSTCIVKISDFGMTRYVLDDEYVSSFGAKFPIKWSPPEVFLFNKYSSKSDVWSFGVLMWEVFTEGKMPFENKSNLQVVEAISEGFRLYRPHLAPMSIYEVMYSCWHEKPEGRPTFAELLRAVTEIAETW", "outline": "as §1"}, "MST1": {"target": "MST1 (Homo sapiens, UniProt Q13043)", "conditions": "1 μM", "outline": "as §1"}, "[3]": {"target": "ABL1(F317I)-phosphorylated (Homo sapiens, UniProt P00519, F317I)", "outline": "as §1"}, "DYRK1A": {"target": "T21, DYRK1A (Homo sapiens, UniProt Q13627)", "T21 construct": "DNA tag (qPCR read-out); purchased Ambit Kinomescan", "outline": "as §1"}, "PIK3CA(M1043I)": {"target": "T22, PIK3CA(M1043I) (Homo sapiens, UniProt P42336, M1043I)", "T22 construct": "DNA tag (qPCR read-out)", "T22 sequence (P42336 whole entry M1043I)": "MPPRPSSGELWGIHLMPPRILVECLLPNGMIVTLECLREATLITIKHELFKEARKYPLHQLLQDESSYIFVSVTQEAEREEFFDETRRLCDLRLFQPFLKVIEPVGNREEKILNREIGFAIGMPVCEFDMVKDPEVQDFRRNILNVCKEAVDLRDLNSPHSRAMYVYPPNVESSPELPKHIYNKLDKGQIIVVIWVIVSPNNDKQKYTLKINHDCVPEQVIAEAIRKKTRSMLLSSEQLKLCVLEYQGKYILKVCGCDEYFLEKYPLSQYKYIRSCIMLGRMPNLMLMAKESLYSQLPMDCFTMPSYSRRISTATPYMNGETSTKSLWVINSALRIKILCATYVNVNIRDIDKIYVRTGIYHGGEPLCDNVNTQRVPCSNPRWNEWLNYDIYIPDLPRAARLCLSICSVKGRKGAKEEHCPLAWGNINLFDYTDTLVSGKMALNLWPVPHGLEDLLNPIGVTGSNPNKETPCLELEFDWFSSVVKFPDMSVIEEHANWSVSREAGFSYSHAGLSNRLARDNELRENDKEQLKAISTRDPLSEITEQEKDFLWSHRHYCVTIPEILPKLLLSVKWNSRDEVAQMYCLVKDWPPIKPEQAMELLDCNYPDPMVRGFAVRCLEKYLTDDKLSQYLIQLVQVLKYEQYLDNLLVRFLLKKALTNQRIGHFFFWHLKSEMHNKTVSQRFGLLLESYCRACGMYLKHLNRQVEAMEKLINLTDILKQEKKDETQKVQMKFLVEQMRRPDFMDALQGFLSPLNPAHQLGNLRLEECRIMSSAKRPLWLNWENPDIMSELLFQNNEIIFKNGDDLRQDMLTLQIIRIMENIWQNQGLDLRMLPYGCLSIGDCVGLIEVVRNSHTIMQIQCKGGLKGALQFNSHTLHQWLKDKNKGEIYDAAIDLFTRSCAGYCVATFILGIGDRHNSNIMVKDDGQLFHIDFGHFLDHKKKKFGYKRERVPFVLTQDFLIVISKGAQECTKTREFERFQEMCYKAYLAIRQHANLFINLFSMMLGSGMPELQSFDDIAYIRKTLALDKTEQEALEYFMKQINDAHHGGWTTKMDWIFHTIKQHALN", "outline": "as §1"}, "EPHA3": {"target": "T23, EPHA3 (Homo sapiens, UniProt P29320)", "T23 construct": "DNA tag (qPCR read-out)", "T23 sequence (P29320 21-983)": "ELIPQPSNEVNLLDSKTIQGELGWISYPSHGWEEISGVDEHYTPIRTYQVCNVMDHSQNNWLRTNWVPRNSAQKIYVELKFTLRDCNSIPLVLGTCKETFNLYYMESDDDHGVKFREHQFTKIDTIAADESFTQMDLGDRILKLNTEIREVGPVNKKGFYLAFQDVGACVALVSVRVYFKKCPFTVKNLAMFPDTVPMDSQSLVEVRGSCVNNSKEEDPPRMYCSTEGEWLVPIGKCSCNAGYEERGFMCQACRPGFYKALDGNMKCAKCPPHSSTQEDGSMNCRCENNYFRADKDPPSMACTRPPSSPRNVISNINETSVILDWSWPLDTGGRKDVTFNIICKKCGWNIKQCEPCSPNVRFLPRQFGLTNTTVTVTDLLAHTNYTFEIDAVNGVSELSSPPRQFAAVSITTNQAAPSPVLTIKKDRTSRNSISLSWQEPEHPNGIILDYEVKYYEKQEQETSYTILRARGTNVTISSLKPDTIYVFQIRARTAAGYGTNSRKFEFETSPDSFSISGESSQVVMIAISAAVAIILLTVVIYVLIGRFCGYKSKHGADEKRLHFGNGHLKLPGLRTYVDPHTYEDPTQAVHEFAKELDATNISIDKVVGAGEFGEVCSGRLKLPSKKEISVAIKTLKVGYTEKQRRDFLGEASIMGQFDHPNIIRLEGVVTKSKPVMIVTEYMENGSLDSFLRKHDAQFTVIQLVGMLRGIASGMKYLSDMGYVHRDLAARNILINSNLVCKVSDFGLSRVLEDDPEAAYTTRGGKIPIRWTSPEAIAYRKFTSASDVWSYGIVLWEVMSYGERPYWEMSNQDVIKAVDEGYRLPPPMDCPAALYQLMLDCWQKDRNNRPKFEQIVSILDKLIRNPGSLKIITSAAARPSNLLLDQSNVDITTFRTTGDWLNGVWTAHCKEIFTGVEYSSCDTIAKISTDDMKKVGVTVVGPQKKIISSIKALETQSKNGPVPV", "outline": "as §1"}, "MAP3K4": {"target": "T24, MAP3K4 (Homo sapiens, UniProt Q9Y6R4)", "T24 construct": "purchased Ambit Kinomescan (contract panel)", "outline": "as §1"}}, "data": [{"molecule": "NCCCNc1nc2c(Br)c(Br)c(Br)c(Br)c2[nH]1", "note": "[Compound 11, N-(3-aminopropyl)-4,5,6,7-tetrabromo-1H-benzo[d]imidazol-2-amine]", "values": [{"measurement": "remaining binding at 1 µM", "setting": "MEK6", "result": 100, "unit": "%"}, {"measurement": "remaining binding at 1 µM", "setting": "HIPK1", "result": 2.8, "unit": "%"}, {"measurement": "remaining binding at 1 µM", "setting": "MEK3", "result": 78, "unit": "%"}, {"measurement": "remaining binding at 1 µM", "setting": "ERN1", "result": 91, "unit": "%"}, {"measurement": "remaining binding at 1 µM", "setting": "TBK1", "result": 76, "unit": "%"}, {"measurement": "remaining binding at 1 µM", "setting": "AXL", "result": 90, "unit": "%"}, {"measurement": "remaining binding at 1 µM", "setting": "EPHB1", "result": 100, "unit": "%"}, {"measurement": "remaining binding at 1 µM", "setting": "CAMK2D", "result": 100, "unit": "%"}, {"measurement": "remaining binding at 1 µM", "setting": "NEK5", "result": 100, "unit": "%"}, {"measurement": "remaining binding at 1 µM", "setting": "CAMK2G", "result": 100, "unit": "%"}, {"measurement": "remaining binding at 1 µM", "setting": "[1]", "result": 100, "unit": "%"}, {"measurement": "remaining binding at 1 µM", "setting": "TAK1", "result": 65, "unit": "%"}, {"measurement": "remaining binding at 1 µM", "setting": "BRAF(V600E)", "result": 96, "unit": "%"}, {"measurement": "% binding", "setting": "EGFR(L858R.T790M)", "result": 100, "unit": "%"}, {"measurement": "remaining binding at 1 µM", "setting": "DCAMKL2", "result": 100, "unit": "%"}, {"measurement": "remaining binding at 1 µM", "setting": "MYLK", "result": 58, "unit": "%"}, {"measurement": "remaining binding at 1 µM", "setting": "ASK2", "result": 90, "unit": "%"}, {"measurement": "remaining binding at 1 µM", "setting": "TGFBR2", "result": 100, "unit": "%"}, {"measurement": "remaining binding at 1 µM", "setting": "YANK1", "result": 100, "unit": "%"}, {"measurement": "remaining binding at 1 µM", "setting": "FLT3(R834Q)", "result": 100, "unit": "%"}, {"measurement": "remaining binding at 1 µM", "setting": "MEK4", "result": 82, "unit": "%"}, {"measurement": "remaining binding at 1 µM", "setting": "[2]", "result": 97, "unit": "%"}, {"measurement": "remaining binding at 1 µM", "setting": "PYK2", "result": 100, "unit": "%"}, {"measurement": "remaining binding at 1 µM", "setting": "CSF1R", "result": 100, "unit": "%"}, {"measurement": "remaining binding at 1 µM", "setting": "CDKL1", "result": 100, "unit": "%"}, {"measurement": "% binding", "setting": "IRAK4", "result": 100, "unit": "%"}, {"measurement": "remaining binding at 1 µM", "setting": "TXK", "result": 93, "unit": "%"}, {"measurement": "% binding", "setting": "MST1", "result": 100, "unit": "%"}, {"measurement": "remaining binding at 1 µM", "setting": "[3]", "result": 100, "unit": "%"}, {"measurement": "remaining binding at 1 µM", "setting": "DYRK1A", "result": 2.6, "unit": "%"}, {"measurement": "remaining binding at 1 µM", "setting": "PIK3CA(M1043I)", "result": 100, "unit": "%"}, {"measurement": "remaining binding at 1 µM", "setting": "EPHA3", "result": 89, "unit": "%"}, {"measurement": "remaining binding at 1 µM", "setting": "MAP3K4", "result": 100, "unit": "%"}]}]}
